# Laboratory results reported in ChEMBL document CHEMBL5038648, “Dolabellane Diterpenes and Elemane Alkaloids from the Soft Coral Clavularia inflata Collected in the South China Sea” (J Nat Prod, 2022).
# The source made the active and inactive calls. The rule behind the calls is not given here.
# Tests used:
# Danio rerio [1] = organism: Danio rerio; experiment: Antiinflammatory activity in transgenic fluorescent zebrafish expressing EGFP assessed as reduction in CuSO4 induced number of macrophages surrounding the neuromast at 20 uM preincubated for 2 hrs followed by Cuso4 addition and measured after 1 hr by fluorescence microscopic analysis; assay type: functional, organism-based; details: time 3.0 hrs
# Danio rerio [2] = organism: Danio rerio; experiment: Antiinflammatory activity in transgenic fluorescent zebrafish expressing EGFP assessed as reduction in CuSO4 induced macrophage migration at 20 uM preincubated for 2 hrs followed Cuso4 addition and measured after 1 hr by fluorescence microscopic analysis; assay type: functional, organism-based; details: time 3.0 hrs
Compound,Activity (Danio rerio [1]),Activity (Danio rerio [2])
C=C[C@@]1(C)C[C@H]2NC(=O)C(C)=C2C[C@@H]1C(=C)C(=O)OC,Active,Active
CC1=C2C(=O)C[C@@]3(C)CC/C(C)=C\C(=O)C[C@@H](C)C[C@@H](OC1=O)[C@H]23,Active,Active
CC1=C2CC[C@@]3(C)CC/C(C)=C/C(=O)C[C@@H](C)C[C@@H](OC1=O)[C@H]23,Active,Active
C=C1CC/C=C(\C)C[C@H]2OC(=O)C(C)=C3CC[C@@](C)(CC1)[C@@H]32,Active,Active
CC1=C2CC[C@@]3(C)/C=C/[C@]4(C)C[C@](O)(C[C@@H](C)C[C@@H](OC1=O)[C@H]23)OO4,Active,Active
CC1=C2CC[C@@]3(C)CC/C(C)=C\C(=O)C[C@@H](C)C[C@@H](OC1=O)[C@]23OO,Active,Active
COc1ccc2c(c1)c(CC(=O)O)c(C)n2C(=O)c1ccc(Cl)cc1,Active,Active
C=C1CC/C=C(\C)C[C@@H](O)[C@@H]2C(C(C)(C)O)=CC[C@@]2(C)CC1,Active,Active
C=C[C@]1(C)C[C@@H]2NC(=O)C(C)=C2C[C@H]1C(=C)C(=O)OC,Active,Active
